The first experiment relates to CWR22RV1 cells. As to the kind of experiment: Inhibition of proliferation of CWR22RV1 cells (CCK-8). In kind it is cell-based, human. Conditions: Homo sapiens, CWR22Rv1, 144 h, 6 days culture, read-out: IC50 against CWR22RV1 cells. As for the experimental part: 1) CWR22RV1 cells were subcultured in cell culture medium, and the cells in good growth condition were seeded in a 96-well plate, 80 μL for each well, and the cell number in each well was 1500. The plate was incubated overnight in a 37° C., 5% CO2 cell incubator. 2) The drug was prepared as 30 mM stock solution with dimethyl sulfoxide (DMSO). Prior to use, the stock solution was diluted 3 times with DMSO, and then further diluted as 3-fold gradient to obtain 9 concentration gradients. Then, each concentration of compound was diluted 200 times with the culture solution (ensuring that the DMSO concentration in the culture system was 0.1%), and two replicate wells were set for each concentration. 20 μL of diluted compound solution was added to the cell culture well (with final concentrations of 10 μM, 3.3 μM. 1.1 μM . . . ), and the plate was gently shaken to mix. In addition, 3 negative control wells containing only cells and 3 blank control wells containing only culture medium were included (6 wells were each added 20 μL DMSO diluted 200 times with culture medium). 2. Result detection: (1) After culturing for 6 days, 10 μL CCK-8 was added to each well, and the plate was continually cultured in a 37° C., 5% CO2 cell incubator for 2.5 h. (2) The absorbance (OD value) was detected at 450 nm using a multifunctional microplate reader. (3) The data were analyzed by Dose-response-inhibition equation in the software GraphPad Prism6, and the IC50 value was obtained.
The IC50 is the midpoint of a concentration-inhibition curve. Regarding `CNC(=O)Nc1ccc2c(c1)CC[C@@]21OC(=O)N(CC(=O)N2CCCc3cc(-c4ccn(C)n4)c(C(F)(F)F)cc32)C1=O` [Example 109, (R)-1-methyl-3-(3′-(2-(6-(1-methyl-1H-pyrazol-3-yl)-7-(trifluoromethyl)-3,4-dihydroquinolin-1-(2H)-yl)-2-oxoethyl)-2′,4′-dioxo-2,3-dihydrospiro[indene-1,5′-oxazolidine]-5-yl)urea], the IC50 is above 2000 nM.

Turning to `CNC(=O)Nc1ccc2c(c1)CC[C@@]21OC(=O)N(CC(=O)NC2C(C)(C)C(O)C2(C)C)C1=O` (stereo partly drawn) [Example 105, (R)—N-(3-hydroxyl-2,2,4,4-tetramethylcyclobutyl)-2-(5-(3-Methylureido)-2′,4′-dioxo-2,3-dihydrospiro[indene-1,5′-oxazole]-3′-yl)acetamide], the IC50 is above 2000 nM.

`CNC(=O)Nc1ccc2c(c1)CC[C@@]21OC(=O)N(CC(=O)N2CCCC2c2cccc(C)c2)C1=O` (stereo partly shown) [Example 318]: the IC50 was above 2000 nM.

In the case of `CNC(=O)Nc1ccc2c(c1)CC[C@@]21OC(=O)N(CC(=O)N2CCCCC2c2ccccc2)C1=O` (stereo partly drawn) [Example 322, 1-((1R)-2′,4′-dioxo-3′-(2-oxo-2-(2-phenylpiperidin-1-yl)ethyl)-2,3-dihydrospiro[indene-1,5′-oxazolidine]-5-yl)-3-methylurea], the half-maximal inhibitory concentration (IC50) is above 2000 nM.

In the case of `CNC(=O)Nc1ccc2c(c1)CC[C@@]21OC(=O)N(CC(=O)N2CCC[C@H]2c2cc(C)n[nH]2)C1=O` [Example 333, 1-methyl-3-((R)-3′-(2-((S)-2-(3-methyl-1H-pyrazol-5-yl)pyrrolidin-1-yl)-2-oxoethyl)-2′,4′-dioxo-2,3-dihydrospiro[indene-1,5′-oxazolidine]-5-yl)urea], the IC50 is above 2000 nM.

In the case of `CNC(=O)Nc1cc2c(cc1F)[C@]1(CC2)OC(=O)N(CC(=O)N2[C@@H](C)CC[C@H]2c2cc(F)c(F)c(F)c2)C1=O` [Example 392], the IC50 was in the range of 500 to 2000 nM.

On to `CNC(=O)Nc1ccc2c(c1)C1(CC1)CC21OC(=O)N(CC(=O)N2C(C)CCC2c2ccc(F)cc2)C1=O` (stereo not shown) [Example 97, 1-(3′-(2-(2-(4-fluorophenyl)-5-methylpyrrolidin-1-yl)-2-oxoethyl)-2′,4′-dioxo-2,3-dihydrospiro[cyclopropane-1,1′-indene-1,5′-oxazolidine]-5-yl)-3-methylurea], for which the IC50 is above 2000 nM.

Regarding `CNC(=O)Nc1ccc2c(c1)CC[C@@]21OC(=O)N(CC(=O)N2C3CCCC2CC3)C1=O` [Example 3], the IC50 is above 2000 nM.

Take `C[C@H]1CC[C@@H](c2ccc(F)cc2)N1C(=O)CN1C(=O)O[C@@]2(CCc3cc(NC(=O)C(F)F)ccc32)C1=O` [Example 376, 2,2-difluoro-N—((R)-3′-(2-((2S,5S)-2-(4-fluorophenyl)-5-methylpyrrolidin-1-yl)-2-oxoethyl)-2′,4′-dioxo-2,3-dihydrospiro[indene-1,5′-oxazolidine]-5-yl)acetamide]: the IC50 was in the range of 500 to 2000 nM.

As for `CNC(=O)Nc1ccc2c(c1)CC[C@@]21OC(=O)N(CC(=O)N2C(c3ccc(F)cc3)CC[C@@H]2C)C1=O` (stereo partly drawn) [Example 15, 1-((R)-3′-(2-((5S)-2-(4-fluorophenyl)-5-methylpyrrolidin-1-yl)-2-oxoethyl)-2′,4′-dioxo2,3-dihydrospiro[indene-1,5′-oxazolidine]-5-yl)-3-methylurea], the IC50 was at most 500 nM.

`C[C@H]1CC[C@@H](c2ccc(F)cc2)N1C(=O)CN1C(=O)O[C@@]2(CCc3cc(N)ccc32)C1=O` [compound 372]: the IC50 was above 2000 nM.

For the compound `CNC(=O)Nc1ccc2c(c1)CCC21OC(=O)N(CC(=O)N2CC3CCC2C3)C1=O` (stereo not shown) [Example 16, 1-(3′-(2-(2-azabicyclo[2.2.1]heptan-2-yl)-2-oxoethyl)-2′,4′-dioxo-2,3-dihydrospiro[indene-1,5′-oxazolidine]-5-yl)-3-methylurea], the IC50 was above 2000 nM.

Regarding `CNC(=O)Nc1ccc2c(c1)CC[C@]21OC(=O)N(CC(=O)N2Cc3cccnc3C2)C1=O` [Example 305, (S)-1-(3′-(2-(5,7-dihydro-6H-pyrrolo[3,4-b]pyridin-6-yl)-2-oxoethyl)-2′,4′-dioxo-2,3-dihydrospiro[indene-1,5′-oxazolidine]-5-yl)-3-methylurea], the IC50 was above 2000 nM.

Consider `CNC(=O)Nc1ccc2c(c1)CC[C@@]21OC(=O)N(CC(=O)N2CCCC2c2ccccc2OC(F)(F)F)C1=O` (stereo partly drawn) [Example 13, 1-((1R)-2′,4′-dioxo-3′-(2-oxo-2-(2-(2-(trifluoromethoxyl)phenyl)pyrrolidin-1-yl)ethyl)-2,3-dihydrospiro[indene-1,5′-oxazolidine]-5-yl)-3-methylurea], for which the IC50 is above 2000 nM.

Turning to `CNC(=O)Nc1ccc2c(c1)CC[C@@]21OC(=O)N(CC(=O)N2C(C)CCC2c2ccc(F)cc2C)C1=O` (stereo partly drawn) [Example 353, 1-((1R)-3′-(2-(2-(4-fluoro-2-methylphenyl)-5-methylpyrrolidin-1-yl)-2-oxoethyl)-2′,4′-dioxo-2,3-dihydrospiro[indene-1,5′-oxazolidine]-5-yl)-3-methylurea], the IC50 is at most 500 nM.

Take `CNC(=O)Nc1ccc2c(c1)CC[C@@]21OC(=O)N(CC(=O)N2CCC[C@H]2C#N)C1=O` [Example 331, 1-((R)-3′-(2-((S)-2-cyanopyrrolidin-1-yl)-2-oxoethyl)-2′,4′-dioxo-2,3-dihydrospiro[indene-1,5-oxazolidine]-5-yl)-3-methylurea]: the 50% inhibitory concentration (IC50) is above 2000 nM.

For `CNC(=O)Nc1ccc2c(c1F)CC[C@@]21OC(=O)N(CC(=O)N2[C@@H](C)CC[C@H]2c2cc(F)c(F)c(F)c2)C1=O` [Example 384, 1-((R)-4-fluoro-3′-(2-((2S,5S)-2-methyl-5-(3,4,5-trifluorophenyl)pyrrolidin-1-yl)-2-oxoethyl)-2′,4′-dioxo-2,3-dihydrospiro[indene-1,5′-oxazolidine]-5-yl)-3-methylurea], the IC50 was above 2000 nM.

As to `CNC(=O)Nc1ccc2c(c1)CC[C@]21OC(=O)N(CC(=O)N2CCC[C@@H]2c2ccccc2)C1=O` [Example 309, 1-((S)-2′,4′-dioxo-3′-(2-oxo-2-((R)-2-phenylpyrrolidin-1-yl)ethyl)-2,3-dihydrospiro[indene-1,5′-oxazolidine]-5-yl)-3-methylurea], the IC50 was 500 to 2000 nM.

`CNC(=O)Nc1cc(F)c2c(c1)CC[C@@]21OC(=O)N(CC(=O)N2[C@@H](C)CC[C@H]2c2cc(F)c(F)c(F)c2)C1=O` [Example 388]: the half-maximal inhibitory concentration (IC50) was above 2000 nM.

As to `CNC(=O)Nc1ccc2c(c1)CC[C@@]21OC(=O)N(CC(=O)N2CCCC2c2ccccc2Br)C1=O` (stereo partly drawn) [Example 336, 1-((1R)-3′-(2-(2-(2-bromophenyl)pyrrolidin-1-yl)-2-oxoethyl)-2′,4′-dioxo-2,3-dihydrospiro[indene-1,5′-oxazolidine]-5-yl)-3-methylurea], the IC50 is above 2000 nM.

On to `CNC(=O)Nc1ccc2c(c1)CC[C@@]21OC(=O)N(CC(=O)N2CCCC2c2ccccn2)C1=O` (stereo partly drawn) [Example 332, 1-((1R)-2′,4′-dioxo-3′-(2-oxo-2-(2-(pyridin-2-yl)pyrrolidin-1-yl)ethyl)-2,3-dihydrospiro[indene-1,5′-oxazolidine]-5-yl)-3-methylurea], for which the IC50 was above 2000 nM.

As to `CNC(=O)Nc1ccc2c(c1)CC[C@@]21OC(=O)N(CC(=O)N2CCC[C@H]2c2ccc(F)cc2C)C1=O` [Example 8, 1-((R)-3′-(2-((S)-2-(4-fluoro-2-methylphenyl)pyrrolidin-1-yl)-2-oxoethyl)-2′,4′-dioxo-2,3-dihydrospiro[indene-1,5′-oxazolidine]-5-yl)-3-methylurea], the IC50 is 500 to 2000 nM.

`CNC(=O)Nc1ccc2c(c1)CC[C@@]21OC(=O)N(CC(=O)N2CCCC2c2ccc(F)cc2OC)C1=O` (stereo partly drawn) [Example 340, 1-((1R)-3′-(2-(2-(4-fluoro-2-methoxyphenyl)pyrrolidin-1-yl)-2-oxoethyl)-2′,4′-dioxo-2,3-dihydrospiro[indene-1,5′-oxazolidine]-5-yl)-3-methylurea]: the IC50 was above 2000 nM.

As to `CNC(=O)Nc1ccc2c(c1)CC[C@@]21OC(=O)N(CC(=O)N2C(C)CCC2c2ccc(F)cc2OC)C1=O` (stereo partly drawn) [Example 337, 1-((1R)-3′-(2-(2-(4-fluoro-2-methoxyphenyl)-5-methylpyrrolidin-1-yl)-2-oxoethyl)-2′,4′-dioxo-2,3-dihydrospiro[indene-1,5′-oxazolidine]-5-yl)-3-methylurea], the IC50 was in the range of 500 to 2000 nM.

On to `CNC(=O)Nc1ccc2c(c1)CC[C@@]21OC(=O)N(CC(=O)N2CCCC2c2cccnc2)C1=O` (stereo partly drawn) [Example 334, 1-((1R)-2′,4′-dioxo-3′-(2-oxo-2-(2-(pyridin-3-yl)pyrrolidin-1-yl)ethyl)-2,3-dihydrospiro[indene-1,5′-oxazolidine]-5-yl)-3-methylurea], for which the IC50 is above 2000 nM.

With `CNC(=O)Nc1ccc2c(c1)CC[C@@]21OC(=O)N(CC(=O)N2C(c3ccc(F)c(F)c3)CC[C@@H]2C)C1=O` (stereo partly drawn) [Example 374, 1-((R)-3′-(2-((5S)-2-(3,4-difluorophenyl)-5-methylpyrrolidin-1-yl)-2-oxoethyl)-2′,4′-dioxo-2,3-dihydrospiro[indene-1,5′-oxazolidine]-5-yl)-3-methylurea], the half-maximal inhibitory concentration (IC50) was above 2000 nM.

The same experiment, now with this note: Homo sapiens, CWR22Rv1, 144 h, 6 days culture, read-out: IC50 against CWR22RV1 cells (text).
For the compound `CNC(=O)Nc1ccc2c(c1)CC[C@@]21OC(=O)N(CC(=O)N2C(c3ccc(F)cc3)CC[C@@H]2C)C1=O` (stereo partly drawn) [Example 15, 1-((R)-3′-(2-((5S)-2-(4-fluorophenyl)-5-methylpyrrolidin-1-yl)-2-oxoethyl)-2′,4′-dioxo2,3-dihydrospiro[indene-1,5′-oxazolidine]-5-yl)-3-methylurea], the IC50 is at most 500 nM.

On to `CNC(=O)Nc1ccc2c(c1)CC[C@@]21OC(=O)N(CC(=O)N2C(C)CCC2c2ccc(F)cc2C)C1=O` (stereo partly drawn) [Example 353, 1-((1R)-3′-(2-(2-(4-fluoro-2-methylphenyl)-5-methylpyrrolidin-1-yl)-2-oxoethyl)-2′,4′-dioxo-2,3-dihydrospiro[indene-1,5′-oxazolidine]-5-yl)-3-methylurea], for which the IC50 is at most 500 nM.

(Values after patent publication US20220087996A1, “Histone acetylase p300 inhibitor and use thereof” (HINOVA PHARMACEUTICALS INC., priority 2018, published 2022).)
